From patent US20260256751A1, “COMBINATION OF BETA-2-ADRENERGIC RECEPTOR AGONISTS AND GLP-1 RECEPTOR AGONISTS FOR USE IN TREATING HYPERGLYCAEMIA” (ATROGI AB, priority 2023, published 2026)

What was measured:
[1] = system: differentiated L6-myotubes; assay: cAMP production relative to isoprenaline (Biological example 2 of WO 2019/053427); type: cell-based; conditions: compound at 10 μM, activity relative to isoproterenol at 10 μM; for Emax at 10 µM: 0.25 h
Outline: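 Values are cAMP levels relative to isoprenaline at equal concentration (final 1×10^−5 M for both). Stimulation lasted 15 min in differentiated L6 myotubes, using HBSS buffer (pH 7.4) containing 1 mM IBMX, 5 mM HEPES and 1% BSA.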

[2] = system: differentiated L6-myotubes; assay: Glucose uptake screen (Biological example 1 of WO 2019/053427); type: cell-based; conditions: compound at 10 μM, activity relative to isoproterenol at 10 μM; for Emax at 10 µM: read-out: Biological example 1 of WO 2019/053427 (GU)
Outline: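 Uptake was read out as ^3H-2-deoxyglucose (50 nM, 10 min) radioactivity in NaOH lysates. Beforehand, overnight-starved, differentiated L6 myotubes received compound at 1×10^−5 M with ICI-118551 present for 1 h 40 min, followed by fresh agonist for a further 20 min in glucose-free medium.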

Row | SMILES | Emax at 10 µM [1] [%] | Emax at 10 µM [2] [%] | Biological example of WO 2019/053427 (cAMP) [1] | Biological example 1 of WO 2019/053427 (GU) [2]
1 | CC(C)(C)NCC(O)c1ccc(O)cc1 (centres unmarked) [Compound 4, 2-(tert-butylamino)-1-(p-hydroxyphenyl)-1-ethanol] | 25 to 50 | > 75 | – | –
2 | CC(C)(NC[C@H](O)c1cncc(F)c1)[C@H]1CC[C@H](N)CC1 [Compound 344, (R)-1-(5-fluoro-3-pyridyl)-2-{1-methyl-1-[(1r,4R)-4-aminocyclohexyl]ethylamino}-1-ethanol] | < 25 | < 25 | – | –
3 | CCC[C@H]1CCC[C@@H]([C@@H](O)c2cccc(O)c2)N1 [Compound 121, (S)-[(2S,6S)-6-propyl-2-piperidyl](m-hydroxyphenyl)methanol] | < 25 | > 75 | – | –
4 | CC(C)(C[C@H]1CC[C@H](N)CC1)NC[C@H](O)c1cccc(C#N)n1 [Compound 417, 6-[(S)-2-{1,1-dimethyl-2-[(1r,4S)-4-aminocyclohexyl]ethylamino}-1-hydroxyethyl]-2-pyridinecarbontirile] | 25 to 50 | > 75 | – | –
5 | CC1(C)CC[C@H]([C@@H](O)c2ccccc2Cl)N1 [Compound 152] | – | – | − (less than 25%) | +++ (more than 75% of that of isoproterenol at 10 μM)
6 | CC1(C)CCC[C@H]([C@H](O)c2ccccc2Cl)N1 [Compound 162, (R)-[(R)-6,6-dimethyl-2-piperidyl](o-chlorophenyl)methanol] | < 25 | 25 to 50 | – | –
7 | CCC[C@@H]1CCC[C@@H]([C@H](O)c2cccc(O)c2)N1 [Compound 136, (R)-[(2S,6R)-6-propyl-2-piperidyl](m-hydroxyphenyl)methanol] | < 25 | > 75 | – | –
8 | CCC[C@H]1CC[C@@H]([C@H](O)c2cccc(F)c2)N1 [Compound 130] | < 25 | 25 to 50 | – | –
9 | CCC[C@H]1CCC[C@H]([C@@H](O)c2ccc(F)c(F)c2)N1 [Compound 65, (S)-[(2R,6S)-6-propyl-2-piperidyl](3,4-difluorophenyl)methanol] | < 25 | 25 to 50 | – | –
10 | CO[C@H]1CC[C@H](C[C@@H]2CC[C@H]([C@H](O)c3cccc(F)c3)N2)CC1 [Compound 326, (R)-[(2R,5S)-5-{[(1r,4S)-4-methoxycyclohexyl]methyl}-2-pyrrolidinyl](m-fluorophenyl)methanol] | < 25 | > 75 | – | –
11 | COc1ccc(C[C@@H]2CC[C@H]([C@H](O)c3cccc(F)c3)N2)cc1 [Compound 373, (R)-{(2R,5S)-5-[(p-methoxyphenyl)methyl]-2-pyrrolidinyl}(m-fluorophenyl)methanol] | 25 to 50 | > 75 | – | –
12 | CC(C)(CC[C@H]1CC[C@@H](C(=O)O)CC1)NC[C@H](O)c1cncc(F)c1 [Compound 347, (1S,4s)-4-{3-[(R)-2-(5-fluoro-3-pyridyl)-2-hydroxyethylamino]-3-methylbutyl}cyclohexanecarboxylic acid] | < 25 | > 75 | – | –
13 | COCC12CCC([C@@H](O)c3cccc(F)c3)(CC1)N2 [Compound 329, (S)-(m-fluorophenyl){4-(methoxymethyl)-7-azabicyclo[2.2.1]hept-1-yl}methanol] | < 25 | 25 to 50 | – | –
14 | CC1(C)C[C@H]([C@H](O)c2cccc(Cl)c2)N1 [Compound 230, (R)-[(R)-4,4-dimethyl-2-azetidinyl](m-chlorophenyl)methanol] | < 25 | > 75 | – | –
15 | CC1(C)C[C@@H]([C@@H](O)c2cccc(Cl)c2)N1 [Compound 231, (S)-[(S)-4,4-dimethyl-2-azetidinyl](m-chlorophenyl)methanol] | < 25 | 25 to 50 | – | –
16 | CCC[C@@H]1CCC[C@H]([C@@H](O)c2cccc(O)c2)N1 [Compound 137, (S)-[(2R,6R)-6-propyl-2-piperidyl](m-hydroxyphenyl)methanol] | < 25 | 25 to 50 | – | –
17 | CC12CC(C1)[C@H]([C@H](O)c1cccc(F)c1)N2 [Compound 186, (R)-{(R)-1-methyl-2-azabicyclo[2.1.1]hex-3-yl}(m-fluorophenyl)methanol] | 50 to 75 | > 75 | – | –
18 | O[C@@H](CNCCC[C@H]1CC[C@H](O)CC1)c1cccc(F)c1 [Compound 303, (R)-1-(m-fluorophenyl)-2-{3-[(1r,4S)-4-hydroxycyclohexyl]propylamino}-1-ethanol] | < 25 | 50 to 75 | – | –
19 | O[C@H](c1cccc(F)c1)C12CCC(C/C=C/c3ccccc3)(CC1)N2 [Compound 534, (R)-{4-[(E)-3-phenyl-2-propenyl]-7-azabicyclo[2.2.1]hept-1-yl}(m-fluorophenyl)methanol] | < 25 | > 75 | – | –

Row | SMILES | Emax at 10 µM [1] [%] | Emax at 10 µM [2] [%] | Biological example of WO 2019/053427 (cAMP) [1] | Biological example 1 of WO 2019/053427 (GU) [2]
20 | CC(C)(C)NC[C@H](O)c1ccc(F)cn1 [Compound 96, (S)-2-(tert-butylamino)-1-(5-fluoro-2-pyridyl)-1-ethanol] | < 25 | 50 to 75 | – | –
21 | CO[C@H]1CC[C@H](CC(C)(C)NC[C@H](O)c2cncc(F)c2)CC1 [Compound 250, (R)-2-{1,1-dimethyl-2-[(1r,4R)-4-methoxycyclohexyl]ethyl-amino}-1-(5-fluoro-3-pyridyl)-1-ethanol] | < 25 | 50 to 75 | – | –
22 | COc1ccc(C[C@@H]2CC[C@H]([C@@H](O)c3cncc(F)c3)N2)cc1 [Compound 377, (S)-{(2R,5S)-5-[(p-methoxyphenyl)methyl]-2-pyrrolidinyl}(5-fluoro-3-pyridyl)methanol] | < 25 | > 75 | – | –
23 | O[C@@H](CNC[C@H]1CC[C@H](O)CC1)c1cccc(F)c1 [Compound 272, (R)-1-(m-fluorophenyl)-2-({[(1r,4R)-4-hydroxycycloehxyl]meth-yl}amino)-1-ethanol] | < 25 | 25 to 50 | – | –
24 | CCC[C@@H]1CCC[C@@H]([C@@H](O)c2cccc(Cl)c2)N1 [Compound 114, (S)-[(2S,6R)-6-propyl-2-piperidyl](m-chlorophenyl)methanol] | < 25 | 25 to 50 | – | –
25 | CC12CCC([C@@H](O)c3ccccc3F)(CC1)N2 [Compound 180, (S)-(o-fluorophenyl)(4-methyl-7-azabicyclo[2.2.1]hept-1-yl)methanol] | < 25 | > 75 | – | –
26 | CC(C)(NC[C@H](O)c1cccc(F)c1)[C@H]1CC[C@@H](C(=O)O)CC1 [Compound 369, (1S,4s)-8-[(R)-2-(m-fluorophenyl)-2-hydroxyethylamino]-7-hydroxy-p-menthan-7-one] | < 25 | 50 to 75 | – | –
27 | CCCCCCNCC(O)c1ccc(O)cc1 (centres unmarked) [Compound 17, 2-(hexylamino)-1-(p-hydroxyphenyl)-1-ethanol] | < 25 | 25 to 50 | – | –
28 | CCCCNCC(O)c1cccc(O)c1 (centres unmarked) [Compound 15, 2-(butylamino)-1-(m-hydroxyphenyl)-1-ethanol] | < 25 | 50 to 75 | – | –
29 | CCC[C@H]1CCC[C@H]([C@@H](O)c2cccc(O)c2)N1 [Compound 155, (S)-[(2R,6S)-6-propyl-2-piperidyl](m-hydroxyphenyl)methanol] | < 25 | < 25 | – | –
30 | CC(C)(C[C@H]1CC[C@H](NS(=O)(=O)C(F)(F)F)CC1)NC[C@H](O)c1cccc(F)c1 [Compound 458, (R)-2-{1,1-dimethyl-2-[(1r,4R)-4-(trifluoromesylamino)cyclohexyl]ethylamino}-1-(m-fluorophenyl)-1-ethanol] | < 25 | > 75 | – | –
31 | CN([C@H]1CC[C@H](CC(C)(C)NC[C@H](O)c2cccc(F)c2)CC1)S(C)(=O)=O [Compound 499, (R)-2-{1,1-dimethyl-2-[(1r,4R)-4-(N-mesyl-N-methylamino)cyclohexyl]ethylamino}-1-(m-fluorophenyl)-1-ethanol] | < 25 | 25 to 50 | – | –
32 | CC1(C)C[C@H]([C@H](O)c2ccccc2F)N1 [Compound 204, (R)-[(R)-4,4-dimethyl-2-azetidinyl](o-fluorophenyl)methanol] | 25 to 50 | > 75 | – | –
33 | CC(C)(C[C@H]1CC[C@H](S(N)(=O)=O)CC1)NC[C@H](O)c1cncc(F)c1 [Compound 518, (1R,4r)-4-{2-[(R)-2-(5-fluoro-3-pyridyl)-2-hydroxyethylamino]-2-methylpropyl}cyclohexanesulfonamide] | < 25 | 50 to 75 | – | –
34 | CC(=O)N[C@H]1CC[C@H](C[C@@H]2CC[C@H]([C@@H](O)c3cccc(F)c3)N2)CC1 [Compound 486, N-[(1S,4r)-4-({(2S,5R)-5-[(S)-(m-fluorophenyl)hydroxymethyl]-2-pyrrolidinyl}methyl)cyclohexyl]acetamide] | < 25 | 50 to 75 | – | –
35 | O[C@@H](c1cccc(F)c1)C12CCC(Cc3ccc(OC(F)(F)F)cc3)(CC1)N2 [Compound 500] | < 25 | < 25 | – | –
36 | CC(=O)N[C@H]1CC[C@@H](CC(C)(C)NC[C@@H](O)c2cccc(C#N)n2)CC1 [Compound 423, N-[(1S,4s)-4-{2-[(R)-2-(6-cyano-2-pyridyl)-2-hydroxyethylamino]-2-methylpropyl}cyclohexyl]acetamide] | < 25 | < 25 | – | –
37 | CN(C)C(=O)N[C@H]1CC[C@H](CC(C)(C)NC[C@H](O)c2cccc(F)c2)CC1 [Compound 430, (R)-2-{1,1-dimethyl-2-[(1r,4R)-4-(3,3-dimethylureido)cyclohexyl]ethylamino}-1-(m-fluorophenyl)-1-ethanol] | 50 to 75 | > 75 | – | –
